Data on 1 substance can be found in US7250397B2, “Antiarrhythmic peptides” (Zealand Pharma A/S, priority 2000, dated 2007).

For this assay, the system named is isolated guinea pig myocytes. As to the kind of experiment: Intercellular conductance Gj (GJIC), double patch clamp of cardiomyocyte pairs. The assay is classed as cell-based. The conditions noted are these: 10^−8 M. On the procedure:
Cell preparation: Cells were isolated from guinea pig hearts by perfusion with collagenase according to the Langendorf method. In brief, guinea pigs were heparinised with an intraperitoneal injection of heparin (1000 IU/kg). After 30 minutes the animal was sacrificed by a blow to the neck followed by cutting the spine at the neck. The chest was opened and the aorta cannulated. Then the cannula was fixed to the aorta by a ligature, exised and perfused with Tyrodes solution for a couple of minutes. The Tyrodes solution had the following composition in mM: Na^+ 135.33, K^+ 4, Cl^− 145, PO4^− 0.33, Mg^2+ 1, Ca^2+ 2, Hepes 10, Glucose 10, pH 7.4. All perfusion media were bubled by 100% oxygen. […]. Then the heart was perfused with high K^+ solution with 0.6 mg/ml collagenase, this was done for 10-15 minutes judged from the apperance of the heart. The atria were cut off, the ventricles minced, whereafter the pieces were stirred in the collagenase solution by gently bubbling with 100% oxygen. […]
Where Ip,pulse and Ip,rest represent the current in the passive cell during the pulse and before the pulse respectively, and Up and Ua represent the voltage of the passive and active cell. […] However, the change in Gj value to a standardized intervention like a drug can be analysed by comparing the relative changes in Gj.

Consider “Ac-D-Tyr-D-Pro-D-4Hyp-Gly-D-Ala-Gly-NH2 [Compound 2]”, for which the “time of stimulation until steady-state level of Gj” value is on record as “about 400 seconds”.
